In patent US20240307382A1, “MODULATORS OF THE INTEGRATED STRESS PATHWAY” (Calico Life Sciences LLC, priority 2017, published 2024):
pEC50: −log10 of the molar value.

What follows are molecules tested on HEK293T cells carrying the ATF4 luciferase reporter (assay: ATF4-Luc assay (ATF4 luciferase reporter, tunicamycin-treated cells)). Conditions: Homo sapiens, HEK-293T, 1 μg/mL tunicamycin, 7 hours.
Format: cell-based
Summary of the method: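 A stable HEK293T reporter line was made by placing the full-length human ATF4 5′-UTR ahead of a firefly luciferase sequence without its start methionine, delivered by retroviral transduction and puromycin selection. Cells were seeded at 30,000 per well in polylysine-coated 384-well plates, exposed next day to 1 μg/mL tunicamycin plus compound for 7 hours, and luminescence was read with One Glo.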

`O=C(COc1ccc(Cl)c(Cl)c1)NC12CCC(NC(=O)c3ccccn3)(CC1)C[C@@H]2O` [Compound 1026, N-{(3S)-4-[2-(3,4-dichlorophenoxy)acetamido]-3-hydroxybicyclo[2.2.2]octan-1-yl}pyridine-2-carboxamide] and `Cc1ccc(C(=O)NC23CCC(NC(=O)COc4ccc(Cl)c(Cl)c4)(CC2)[C@@H](O)C3)nc1` [Compound 1029, N-{(3S)-4-[2-(3,4-dichlorophenoxy)acetamido]-3-hydroxybicyclo[2.2.2]octan-1-yl}-5-methylpyridine-2-carboxamide] cannot be ordered by pEC50: over 7.30 for the first, over 7.30 for the second.

`O=C(COc1ccc(Cl)c(Cl)c1)NC12CCC(NC(=O)c3cccc(C(F)(F)F)n3)(CC1)C[C@@H]2O` [Compound 1027, N-{(3S)-4-[2-(3,4-dichlorophenoxy)acetamido]-3-hydroxybicyclo[2.2.2]octan-1-yl}-6-(trifluoromethyl)pyridine-2-carboxamide] and `O=C(COc1ccc(Cl)c(Cl)c1)NC12CCC(NC(=O)c3ccc(C(F)(F)F)cn3)(CC1)C[C@@H]2O` [Compound 1031, N-{(3S)-4-[2-(3,4-dichlorophenoxy)acetamido]-3-hydroxybicyclo[2.2.2]octan-1-yl}-5-(trifluoromethyl)pyridine-2-carboxamide] cannot be ordered by pEC50: over 7.30 for the first, over 7.30 for the second.

First: CC(C)Oc1ccc(C(=O)NC23CCC(NC(=O)COc4ccc(Cl)c(Cl)c4)(CC2)[C@@H](O)C3)nc1 [Compound 1028, N-{(3S)-4-[2-(3,4-dichlorophenoxy)acetamido]-3-hydroxybicyclo[2.2.2]octan-1-yl}-5-[(propan-2-yl)oxy]pyridine-2-carboxamide]
Second: N#Cc1ccc(C(=O)NC23CCC(NC(=O)COc4ccc(Cl)c(Cl)c4)(CC2)[C@@H](O)C3)nc1 [Compound 1033, 5-cyano-N-{(3S)-4-[2-(3,4-dichlorophenoxy)acetamido]-3-hydroxybicyclo[2.2.2]octan-1-yl}pyridine-2-carboxamide]
The pEC50 of the first is lower: 6.60 to 7.30 for the first, over 7.30 for the second.

First: O=C(COc1ccc(Cl)c(Cl)c1)NC12CCC(NC(=O)c3cc(C(F)(F)F)ccn3)(CC1)C[C@@H]2O [Compound 1030, N-{(3S)-4-[2-(3,4-dichlorophenoxy)acetamido]-3-hydroxybicyclo[2.2.2]octan-1-yl}-4-(trifluoromethyl)pyridine-2-carboxamide]
Second: N#Cc1ccnc(C(=O)NC23CCC(NC(=O)COc4ccc(Cl)c(Cl)c4)(CC2)[C@@H](O)C3)c1 [Compound 1032, 4-cyano-N-{(3S)-4-[2-(3,4-dichlorophenoxy)acetamido]-3-hydroxybicyclo[2.2.2]octan-1-yl}pyridine-2-carboxamide]
The pEC50 of the first is lower: 6.60 to 7.30 for the first, over 7.30 for the second.

`Cc1nc(C(=O)NC23CCC(NC(=O)COc4ccc(Cl)c(Cl)c4)(CC2)[C@@H](O)C3)ccc1C#N` [Compound 1034, 5-cyano-N-{(3S)-4-[2-(3,4-dichlorophenoxy)acetamido]-3-hydroxybicyclo[2.2.2]octan-1-yl}-6-methylpyridine-2-carboxamide] and `O=C(COc1ccc(Cl)c(Cl)c1)NC12CCC(NC(=O)c3cnc(-c4ccccc4)o3)(CC1)C[C@@H]2O` [Compound 1041, N-{(3S)-4-[2-(3,4-dichlorophenoxy)acetamido]-3-hydroxybicyclo[2.2.2]octan-1-yl}-2-phenyl-1,3-oxazole-5-carboxamide] cannot be ordered by pEC50: over 7.30 for the first, over 7.30 for the second.

`O=C(COc1ccc(Cl)c(F)c1)NC12CCC(NC(=O)c3ncc(-c4ccccc4)s3)(CC1)C[C@@H]2O` [Compound 1035, N-{(3S)-4-[2-(4-chloro-3-fluorophenoxy)acetamido]-3-hydroxybicyclo[2.2.2]octan-1-yl}-5-phenyl-1,3-thiazole-2-carboxamide] and `O=C(COc1ccc(Cl)c(F)c1)NC12CCC(NC(=O)c3nc(-c4ccccc4)cs3)(CC1)C[C@@H]2O` [Compound 1038, N-{(3S)-4-[2-(4-chloro-3-fluorophenoxy)acetamido]-3-hydroxybicyclo[2.2.2]octan-1-yl}-4-phenyl-1,3-thiazole-2-carboxamide] cannot be ordered by pEC50: over 7.30 for the first, over 7.30 for the second.

`O=C(COc1ccc(Cl)c(F)c1)NC12CCC(NC(=O)c3coc(-c4ccccc4)n3)(CC1)C[C@@H]2O` [Compound 1036, N-{(3S)-4-[2-(4-chloro-3-fluorophenoxy)acetamido]-3-hydroxybicyclo[2.2.2]octan-1-yl}-2-phenyl-1,3-oxazole-4-carboxamide] and `O=C(COc1ccc(Cl)c(F)c1)NC12CCC(NC(=O)c3cc(-c4ccccc4)on3)(CC1)C[C@@H]2O` [Compound 1039, N-{(3S)-4-[2-(4-chloro-3-fluorophenoxy)acetamido]-3-hydroxybicyclo[2.2.2]octan-1-yl}-5-phenyl-1,2-oxazole-3-carboxamide] cannot be ordered by pEC50: over 7.30 for the first, over 7.30 for the second.

`Cn1nc(C(=O)NC23CCC(NC(=O)COc4ccc(Cl)c(F)c4)(CC2)[C@@H](O)C3)cc1-c1ccccc1` [Compound 1037, N-{(3S)-4-[2-(4-chloro-3-fluorophenoxy)acetamido]-3-hydroxybicyclo[2.2.2]octan-1-yl}-1-methyl-5-phenyl-1H-pyrazole-3-carboxamide] and `O=C(COc1ccc(Cl)c(F)c1)NC12CCC(NC(=O)c3csc(-c4ccccc4)n3)(CC1)C[C@@H]2O` [Compound 1040, N-{(3S)-4-[2-(4-chloro-3-fluorophenoxy)acetamido]-3-hydroxybicyclo[2.2.2]octan-1-yl}-2-phenyl-1,3-thiazole-4-carboxamide] cannot be ordered by pEC50: over 7.30 for the first, over 7.30 for the second.

First: O=C(COc1ccc(Cl)c(F)c1)NC12CC(NC(=O)c3cnc(-c4cccnc4)o3)(C1)C2 [Compound 1042, N-{3-[2-(4-chloro-3-fluorophenoxy)acetamido]bicyclo[1.1.1]pentan-1-yl}-2-(pyridin-3-yl)-1,3-oxazole-5-carboxamide]
Second: O=C(COc1ccc(Cl)c(F)c1)NC12CC(NC(=O)c3cnc(C(F)(F)F)o3)(C1)C2 [Compound 1044, N-{3-[2-(4-chloro-3-fluorophenoxy)acetamido]bicyclo[1.1.1]pentan-1-yl}-2-(trifluoromethyl)-1,3-oxazole-5-carboxamide]
The pEC50 of the first is higher: over 7.30 for the first, 6.60 to 7.30 for the second. The first is the more potent here.

First: O=C(COc1ccc(Cl)c(Cl)c1)NC12CC(NC(=O)c3cnc(C(F)(F)F)o3)(C1)C2 [Compound 1043, N-{3-[2-(3,4-dichlorophenoxy)acetamido]bicyclo[1.1.1]pentan-1-yl}-2-(trifluoromethyl)-1,3-oxazole-5-carboxamide]
Second: O=C(COc1ccc(Cl)c(F)c1)NC12CC(Nc3cncc(C(F)(F)F)c3)(C1)C2 [Compound 1045, 2-(4-chloro-3-fluorophenoxy)-N-(3-{[5-(trifluoromethyl)pyridin-3-yl]amino}bicyclo[1.1.1]pentan-1-yl)acetamide]
The pEC50 of the first is higher: 6.60 to 7.30 for the first, under 5.70 for the second.

`Cn1nnc(-c2ccc(NC34CC(NC(=O)COc5ccc(Cl)c(F)c5)(C3)C4)cn2)n1` [Compound 1046, 2-(4-chloro-3-fluorophenoxy)-N-(3-{[6-(2-methyl-2H-tetrazol-5-yl)pyridin-3-yl]amino}bicyclo[1.1.1]pentan-1-yl)acetamide] and `O=C(COc1ccc(Cl)c(F)c1)NC12CCC(NC(=O)c3ccc4c(c3)OC(F)(F)O4)(CC1)NC2=O` [Compound 1047, N-{4-[2-(4-chloro-3-fluorophenoxy)acetamido]-3-oxo-2-azabicyclo[2.2.2]octan-1-yl}-2,2-difluoro-2H-1,3-benzodioxole-5-carboxamide] cannot be ordered by pEC50: under 5.70 for the first, under 5.70 for the second.
